According to the supplement of paper PMC11451515:

What was measured:
Details in all cases: 48 h
P12-Ichikawa [1] = assay: AUC of viability dose-response curve (% viability x log10 dose units); higher = less sensitive
Summary of the method: (§1)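 Area under the curve was integrated by trapezoidal rule from a log-logistic fit of normalised viability, with curves exceeding full viability scaled and quality-control failures removed. The fit had four parameters over log10 doses. Viability came from CellTiter-Glo One luminescence, normalised per plate to DMSO and cell-free wells, after leukemia cells adapted to each medium (500 or 1000 cells/well, 1536-well plates) were exposed to library compounds in DMSO for 48 h at 37°C. The 11 threefold doses ran from 47 μM to 0.79 nM.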

NOMO1 [2] = assay: as above
Summary of the method: as §1

SEM cells [3] = assay: as above
Summary of the method: as §1

P12-Ichikawa [4] = assay: cell viability relative to DMSO control; higher = less cytotoxic
Summary of the method: (§2)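 NOMO1 or SEM cells were plated at 500 cells/well and P12-Ichikawa cells at 1000 cells/well in 1536-well plates (5 μl), after each leukemia line had been adapted for at least four passages in each medium. Pin dosing delivered library compounds in DMSO at 11 threefold concentrations, 47 μM to 0.79 nM. CellTiter-Glo One luminescence was read after 48 h at 37°C. Viability is reported as a per-plate percentage of DMSO wells, with cell-free wells as background.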

NOMO1 [5] = assay: as above
Summary of the method: as §2

SEM cells [6] = assay: as above
Summary of the method: as §2

O=C(Nc1cccc(Nc2ncc(Br)c(NCCc3cnc[nH]3)n2)c1)N1CCCC1
AUC of viability dose-response curve
Details	NOMO1 [2]	P12-Ichikawa [1]	SEM cells [3]
HPLM + 10% dialyzed FBS	349	318	213
RPMI 5 mM glucose + 10% FBS	342	294	203
RPMI 5 mM glucose + 10% dialyzed FBS	369	344	191

cell viability [%]
Details	NOMO1 [5]	P12-Ichikawa [4]	SEM cells [6]
HPLM + 10% dialyzed FBS, 0.000781 µM	–	–	77.4
HPLM + 10% dialyzed FBS, 0.00234 µM	–	–	78.4
HPLM + 10% dialyzed FBS, 0.00702 µM	–	–	79.3
HPLM + 10% dialyzed FBS, 0.0211 µM	–	–	72.1
HPLM + 10% dialyzed FBS, 0.0632 µM	–	–	67.4
HPLM + 10% dialyzed FBS, 0.19 µM	–	–	47.5
HPLM + 10% dialyzed FBS, 0.569 µM	–	–	32.7
HPLM + 10% dialyzed FBS, 1.71 µM	–	–	17.4
HPLM + 10% dialyzed FBS, 5.12 µM	–	–	9.22
HPLM + 10% dialyzed FBS, 15.4 µM	–	–	5.65
HPLM + 10% dialyzed FBS, 46.1 µM	–	–	1.1
RPMI 5 mM glucose + 10% FBS, 0.000781 µM	113	98	87.7
RPMI 5 mM glucose + 10% FBS, 0.00234 µM	117	103	77.9
RPMI 5 mM glucose + 10% FBS, 0.00702 µM	122	110	80.5
RPMI 5 mM glucose + 10% FBS, 0.0211 µM	112	90.7	75.9
RPMI 5 mM glucose + 10% FBS, 0.0632 µM	112	88.1	69.1
RPMI 5 mM glucose + 10% FBS, 0.19 µM	110	79.7	41
RPMI 5 mM glucose + 10% FBS, 0.569 µM	68.7	34.5	21.1
RPMI 5 mM glucose + 10% FBS, 1.71 µM	71.1	15.2	8.73
RPMI 5 mM glucose + 10% FBS, 5.12 µM	62.8	18.8	3.21
RPMI 5 mM glucose + 10% FBS, 15.4 µM	12.4	33.5	1.59
RPMI 5 mM glucose + 10% FBS, 46.1 µM	1.13	3.48	1.07
RPMI 5 mM glucose + 10% dialyzed FBS, 0.000781 µM	103	111	82.5
RPMI 5 mM glucose + 10% dialyzed FBS, 0.00234 µM	106	104	62.9
RPMI 5 mM glucose + 10% dialyzed FBS, 0.00702 µM	107	107	71
RPMI 5 mM glucose + 10% dialyzed FBS, 0.0211 µM	107	103	64.2
RPMI 5 mM glucose + 10% dialyzed FBS, 0.0632 µM	113	99.5	66.9
RPMI 5 mM glucose + 10% dialyzed FBS, 0.19 µM	95.2	92.6	38.6
RPMI 5 mM glucose + 10% dialyzed FBS, 0.569 µM	92.2	95.1	26.6
RPMI 5 mM glucose + 10% dialyzed FBS, 1.71 µM	59.6	20.3	12.8
RPMI 5 mM glucose + 10% dialyzed FBS, 5.12 µM	65.2	27.2	7.16
RPMI 5 mM glucose + 10% dialyzed FBS, 15.4 µM	37.1	34.6	3.89
RPMI 5 mM glucose + 10% dialyzed FBS, 46.1 µM	0.0873	9.06	1.39
